“And” between values parts separate entries of the source, which are not always exact repeats. Identical values can stand only once. Like-named read-outs stand apart in the source and are kept apart here.
Legend:
[1] = system: head twitch response (HTR); type: in vivo, mice
Protocol: Male C57BL/6 mice (~7-9 weeks old) were used in these studies. Mice were housed 2 per cage under standard temperature- and humidity-controlled laboratory conditions with a 12-hour light/dark cycle. Mice had free access to food and water.
Both compounds were dissolved in saline vehicle at a dose volume of 10 mL/kg. Doses were corrected for salt form so that the dose administered represented free base.
Mice were randomly assigned to 1 of 6 treatment groups consisting of 2 subcutaneous injections (see Table 1), which were administered according to the schedule in FIG. 1. […] Behavior was videotaped by a camera (GoPro Hero 9) mounted above the testing chambers. Recorded video was uploaded for analysis of head twitch behavior. Number of head twitch responses (HTRs) was recorded for each animal for each 2-min bin. For each treatment group, the mean number of HTRs in each 2- or 10-min bin, and across the whole 30-min recording period, were analyzed.

[2] = in vivo; conditions: male, C57BL/6, mouse
Protocol: Male C57BL/6 mice, aged 8-12 weeks, were used in these studies. Mice were housed 4 per cage under standard temperature- and humidity-controlled laboratory conditions with a 12-hour light/dark cycle. Mice had free access to food and water but were fasted from 4 h prior to and until 2 h after dosing. Animals were randomly assigned to treatment groups.
Doses were corrected for salt form so that the dose administered represented free base.
Immediately after blood collection, plasma was harvested by centrifugation at 4,000 rpm for 10 min at 4° C. and samples were stored at −70±10° C. until bioanalysis. Following blood collection, animals were immediately sacrificed, the abdominal vena-cava was cut open, the whole body was perfused from the heart using 10 mL of normal saline, and brain samples were collected from all animals. After isolation, brain samples were rinsed three times in ice-cold normal saline (for 5-10 seconds/rinse using ~5-10 mL normal saline in a disposable petri dish for each rinse) and dried on blotting paper. Brain samples were homogenized using ice-cold phosphate-buffered saline (pH 7.4). Total homogenate volume was three times the tissue weight. All homogenates were stored at −70±10° C. until bioanalysis. For bioanalysis, 20 μL aliquots of plasma/brain study samples or spiked plasma/brain calibration standards were added to individual pre-labeled micro-centrifuge tubes followed by 200 μL of an internal standard solution (cetirizine, 50 ng/mL in acetonitrile) except for blanks, where 200 μL of acetonitrile was added. Samples were vortexed for 5 minutes and then centrifuged for 10 minutes at 4,000 rpm at 4° C. Following centrifugation, 200 μL of each clear supernatant was transferred to a 96-well plate and analyzed with a fit-for-purpose LC-MS/MS method, with authentic samples of each analyte used for calibration and identification.

[3] = Plasma protein binding, rapid equilibrium dialysis, mouse plasma; type: in vitro ADME
Protocol: (§1) A 1 mM stock solution of trazadone was prepared in DMSO and diluted 200-fold in mouse or human plasma to yield a final concentration of 5 μM. The final DMSO concentration was 0.5%. Rapid equilibrium dialysis (RED) was performed with a RED device containing a dialysis membrane with a molecular weight cut-off of 8,000 Daltons. Each dialysis insert contains two chambers. The red chamber is for plasma while the white chamber is for buffer.
(§2) For each dialysis insert, aliquots (200 μL) of positive control or test compound at 5 μM (n=2) were separately added to the plasma chamber and 350 μL of phosphate buffered saline (pH 7.4) was added to the buffer chamber. After sealing the RED device with an adhesive film, dialysis was performed in an incubator at 37° C. with shaking at 300 RPM for 4 hours. To assess recovery and stability, 50 μL aliquots of positive control and test compound were added to 96-deep well plates and quenched with 400 μL acetonitrile (for 0 min), while comparator aliquots were incubated at 37° C. for 4 hours along with the RED device.
(§3) Following dialysis, an aliquot of 50 μL was removed from each well (both plasma and buffer side) and diluted with an equal volume of the opposite matrix (dialyzed with the other matrix) to nullify the matrix effect. Similarly, 50 μL of buffer was added to recovery and stability samples. An aliquot of 100 μL was submitted for LC-MS/MS analysis. […]

[4] = Plasma protein binding, rapid equilibrium dialysis, human plasma; type: in vitro ADME
Protocol: as §1, §2, §3

[5] = Human plasma pharmacokinetic parameters of trazodone collected from the literature; type: in vivo; conditions: mean of literature values
[6] = cited from earlier work
[7] = biological target: T1, 5-HT2A receptor (Mus musculus, UniProt P35363); test: Ex vivo occupancy of cortical 5-HT2A receptors by DOPR, [3H]MDL100,907 autoradiography; type: in vivo, mice; conditions: for receptor occupancy at 0.32 mg/kg / receptor occupancy at 1 mg/kg / receptor occupancy at 3.2 mg/kg / receptor occupancy at 32 mg/kg: mouse, sc
T1 construct: Coronal sections containing the frontal cortex were be cut (20 μm thick) using a cryostat; from tissue; host or cells: frontal cortex sections of male C57BL/6 mouse brain
Protocol: Mice had free access to food and water. Animals were randomly assigned to treatment groups.
Doses were calculated based on the HCl salt. MDL100,907 [methyl-^3H] was purchased from Novandi Chemistry. Ketanserin was purchased from Tocris (UK).
Mice were dosed with vehicle or DOPR (0.32, 1, 3.2, or 32 mg/kg, SC) and sacrificed at 15 or 60 minutes after dosing (n=5 per dose/time condition) by a rising CO2 concentration followed by cervical dislocation. Whole brains were removed, rinsed briefly with saline, and blot dried. A coronal cut was made at the level of the optic chiasm to produce an anterior brain block containing the frontal cortex (according to the Mouse Brain in Stereotaxic Coordinates, Paxinos and Franklin, second edition). The anterior brain block was then cut down the midline, both blocks were placed onto cork disks, covered with OCT embedding matrix (KMA-0100-00A, Cell Path), rapidly frozen in isopentane (cooled to −20/−30° C.) and stored at −20° C. for sectioning and ex vivo autoradiography. Coronal sections containing the frontal cortex were be cut (20 μm thick) using a cryostat and thaw mounted onto Superfrost plus slides and the slides were stored at −20° C. until the day of assay.
Slides containing brain sections were warmed to room temperature and sections were isolated using a DAKO pen and incubated at room temperature for 30 minutes in 200 μL of assay buffer containing 0.2 nM [^3H]MDL100,907 (total binding) or 0.2 nM [^3H]MDL100,907 and […] ketanserin (non-specific binding). Solutions were removed from the sections by aspiration and the slides were washed for two consecutive 5-minute periods in ice-cold wash buffer. The slides were then rinsed briefly in ice-cold distilled water to remove buffer salts and allowed to air dry. The assay and wash buffer consisted of 50 mM Tris, pH 7.4. The binding assay was performed on two separate occasions.
The waxy residue of the DAKO pen was removed with xylene to prevent sparks in the β-imager. Lint-free tissue and an air duster was used to remove any dust particles from the microscope slides. To make the slides conductive, copper foil tape was adhered to the free side of the microscope slides. The slides were placed in the β-imager and the levels of bound radioactivity in the sections were directly determined by counting the number of β-particles emerging from the delineated area using the M3 vision program (BioSpace). Data was collected from the brain sections over 16 hours and expressed in counts per minute per square millimetre (cpm/mm^2). A value for specific binding (cpm/mm^2) was generated by the subtraction of mean non-specific binding (cpm/mm^2) from mean total binding (cpm/mm^2) for each animal.

[8] = DOPR pharmacokinetics after SC administration; conditions: mouse, in vivo

T1 sequence (P35363 whole entry): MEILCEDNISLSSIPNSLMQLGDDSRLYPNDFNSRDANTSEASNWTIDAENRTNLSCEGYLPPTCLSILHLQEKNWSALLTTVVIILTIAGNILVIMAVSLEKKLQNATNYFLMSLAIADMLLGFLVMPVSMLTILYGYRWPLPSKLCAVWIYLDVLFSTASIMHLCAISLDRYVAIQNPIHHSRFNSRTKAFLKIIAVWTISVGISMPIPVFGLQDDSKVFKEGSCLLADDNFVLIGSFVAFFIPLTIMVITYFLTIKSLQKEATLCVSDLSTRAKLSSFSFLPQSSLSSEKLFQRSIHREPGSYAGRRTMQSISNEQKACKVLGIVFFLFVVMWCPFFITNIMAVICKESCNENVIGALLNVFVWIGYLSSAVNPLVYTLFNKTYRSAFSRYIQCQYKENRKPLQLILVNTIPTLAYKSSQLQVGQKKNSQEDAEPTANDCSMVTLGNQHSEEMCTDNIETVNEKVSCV

## O=c1n(CCCN2CCN(c3cccc(Cl)c3)CC2)nc2ccccn12 [trazodone]
[1]; 0-10, 10-20, 20-30 min post trazodone, even at the lowest dose
  HTR reversal quantified in 10-minute bins: rapid and robust HTR reversal effect
[1]; all trazodone doses tested, SC, 45 min after DOPR 3.2 mg/kg SC
  onset of reversal of DOPR HTR: ≤ 2 min
[1]; all trazodone doses tested, limited by recording period
  persistence of HTR reversal effect: ≥ 30 min
[1]; lowest dose of trazodone (1 mg/kg SC)
  reversal of DOPR-induced HTR in the 20-30-minute time bin: full reversal
[1]; mice, total plasma concentration 25 min after 1 mg/kg SC trazodone
  minimum efficacious concentration (MEC) in plasma for reversal: ≤ 369 ng/mL
[1]; trazodone 1, 1.8, 3.2 or 10 mg/kg SC 45 min after DOPR 3.2 mg/kg SC, 30-min recording, all doses incl. lowest
  reversal of HTR induced by DOPR: fully reversed
[2]; 1 mg/kg
  concentration at 5 min: 800 ng/mL and 700 ng/g
  concentration at 15 min: 504 ng/mL and 584 ng/g
  concentration at 25 min: 369 ng/mL and 255 ng/g
[2]; 3.2 mg/kg
  concentration at 5 min: 1480 ng/mL and 1750 ng/g
  concentration at 15 min: 1350 ng/mL and 1600 ng/g
  concentration at 25 min: 1020 ng/mL and 674 ng/g
[2]; 10 mg/kg
  concentration at 5 min: 3490 ng/mL and 7930 ng/g
  concentration at 15 min: 2870 ng/mL and 5100 ng/g
  concentration at 25 min: 1910 ng/mL and 3580 ng/g
[3]; 5 μM, 4 hours, 37° C.
  bound fraction in plasma: 94.4%
[3]; pH 7.4, 37° C.
  fraction unbound at 4 h, 5 μM: 0.056
[4]; 5 μM, 4 hours, 37° C.
  bound fraction in plasma: 90.2%
[4]; pH 7.4, 37° C.
  fraction unbound at 4 h, 5 μM: 0.098
[5]; PO
  Cmax (ng/mL per mg dosed): 17.2 ng/mL per mg dosed
[5]; human, plasma, IV
  half-life: 6.3 h
[5]; human, plasma, PO
  Tmax: 1.5 h
  half-life: 9.1 h
[6]; 25 mg IV, Greenblatt, 1987
  T1/2: 5.3 h
[6]; 50 mg PC, Greenblatt, 1987
  Cmax (ng/mL per mg dosed): 18.8 ng/mL per mg dosed
  T1/2: 5.2 h
  Tmax: 1.02 h
[6]; 50 mg PO, Gammans, 1984
  Cmax (ng/mL per mg dosed): 17.16 ng/mL per mg dosed
  T1/2: 13.3 h
  Tmax: 0.9 h
[6]; 90 mg IV, Nilsen, 1992
  T1/2: 7.3 h
[6]; 100 mg PO, Bayer, 1983
  Cmax (ng/mL per mg dosed): 16 ng/mL per mg dosed
  T1/2: 6.0 h
  Tmax: 2 h
[6]; 100 mg PO, Kale, 2015
  Cmax (ng/mL per mg dosed): 15.47 ng/mL per mg dosed
  T1/2: 13.1 h
  Tmax: 2.25 h
[6]; 100 mg PO, Nilsen, 1992
  Cmax (ng/mL per mg dosed): 18.8 ng/mL per mg dosed
  T1/2: 7.8 h
  Tmax: 1.34 h
[6]; human
  half-life: 6 to 12 h

## CCCc1cc(OC)c(CC(C)N)cc1OC (centres unmarked) [DOPR, 2,5-dimethoxy-4-propylamphetamine]
[1]; SC, higher and lower doses result in fewer HTRs
  dose maximally efficacious for induction of HTR: 3.2 mg/kg
[7]; DOPR 0.32 mg/kg SC, 15 min
  Specific Binding (% of Vehicle): 105 % of Vehicle
  Specific binding, Mean (SEM): 1.39 (0.06) cpm/mm^2
  receptor occupancy at 0.32 mg/kg: -5%
[7]; DOPR 0.32 mg/kg SC, 60 min
  Specific Binding (% of Vehicle): 93 % of Vehicle
  Specific binding, Mean (SEM): 1.23 (0.08) cpm/mm^2
  receptor occupancy at 0.32 mg/kg: 7%
[7]; DOPR 1 mg/kg SC, 15 min
  Specific Binding (% of Vehicle): 104 % of Vehicle
  Specific binding, Mean (SEM): 1.38 (0.06) cpm/mm^2
  receptor occupancy at 1 mg/kg: -4%
[7]; DOPR 1 mg/kg SC, 60 min
  Specific Binding (% of Vehicle): 67 % of Vehicle
  Specific binding, Mean (SEM): 0.88 (0.07) cpm/mm^2
  receptor occupancy at 1 mg/kg: 33%
[7]; DOPR 3.2 mg/kg SC, 15 min
  Specific Binding (% of Vehicle): 71 % of Vehicle
  Specific binding, Mean (SEM): 0.93 (0.09) cpm/mm^2
  receptor occupancy at 3.2 mg/kg: 29%
[7]; DOPR 3.2 mg/kg SC, 60 min
  Specific Binding (% of Vehicle): 43 % of Vehicle
  Specific binding, Mean (SEM): 0.57 (0.05) cpm/mm^2
  receptor occupancy at 3.2 mg/kg: 57%
[7]; DOPR 32 mg/kg SC, 15 min
  Specific Binding (% of Vehicle): 18 % of Vehicle
  Specific binding, Mean (SEM): 0.23 (0.04) cpm/mm^2
  receptor occupancy at 32 mg/kg: 82%
[7]; DOPR 32 mg/kg SC, 60 min
  Specific Binding (% of Vehicle): 8 % of Vehicle
  Specific binding, Mean (SEM): 0.10 (0.01) cpm/mm^2
  receptor occupancy at 32 mg/kg: 92%
[7]; SC, mice
  dose calculated to occupy 50% of 5-HT2A receptors: 2.08 mg/kg
[8]
  Tmax: 1 h

Reference: patent US20260272868A1 (priority 2022, published 2026)
